Assay results taken from patent publication US20160193240A1, “Ulmoside-A: Useful For Prevention Or Cure Of Metabolic Diseases” (COUNCIL OF SCIENTIFIC & INDUSTRIAL RESEARCH, priority 2013, published 2016).

Test system: 3T3L-1 mouse pre-adipocyte cells
Test: Brown adipose marker expression in differentiating 3T3L-1 preadipocytes
Type: cell-based
Procedure: A. 3T3L-1 mouse preadipocyte cells in 6 well plates were allowed to reach full confluence. Two days following confluence (designated as day 0), the growth medium was replaced with differentiation medium (DM). After two days of incubation in DM, this medium was replaced with insulin medium (Ins) and the cells were incubated in Ins for 2 days and then the insulin medium was replaced with growth medium (GM) and the cells were cultured for a total of 10 days (starting from day 0). The cells were treated with vehicle (0.1% DMSO) or ULMA (10 nM in 0.1% DMSO) on day 0 and the total treatment duration was 10 days. In all cases, medium was replaced with fresh corresponding medium every day containing vehicle (0.1% DMSO) or 10 nM ULMA (in DMSO; final DMSO concentration in all wells 0.1% vol/vol). After a total of 10 days from day 0, cells were washed in cold PBS and RNA was extracted using trizol reagent using standard procedure following which cDNA synthesis was done and UCP-1, UCP-2, PGC-1α and PRDM16 expression were determined using QRT-PCR, normalized with Beta-actin mRNA and plotted as fold induction over vehicle treated control. Data is mean±SEM of three independent experiments performed in triplicates. **p<0.01 as determined by two tailed unpaired student's t-test.
C. Cells from identical set of experiments as described in FIGS. 5A and 5B or human SVFs prepared by collagenase digestions were analyzed by western blot analysis for determination of UCP-1, UCP-2 and PGC-1α protein level. Beta-actin was used as a loading control. Data is representative of three independent experiments.
Adiponectin has previously been described to enhance mitochondrial function in adipose tissues and induces its thermogenic potential and therefore causes a conversion towards brown adipose phenotype characterized by an increase in UCPs, in particular UCP-1 (I. B. Bauche, S. A. E. Mkadem, A-M. Pottier, M. Senou, M-C. Many, R. Rersohazy, L. Penicaud, N. Maeda; T. Funahashi, S. M. Brichard. Endocrinology 148(4):1539-1549. 2007). Therefore, the ability of ULMA to induce UCP-1 and 2 in different stages of adipocyte differentiation was checked. We also checked other brown adipose markers such as PGC-1α and PR domain containing 16 (PRDM16). 3T3L-1 mouse pre-adipocyte cells (ATCC, CL-173) maintained in growth medium (DMEM with 4.5 mg/ml glucose, 4.0 mM glutamine, 1 mM sodium pyruvate, 10% FBS and 1× antibiotic-antimycotic solution (all reagents from invitrogen)) were plated in 6 well plates and allowed to reach full confluence. […] After two days of incubation in differentiation medium, this medium was replaced with insulin medium (DMEM, 10% FBS, plus 1.5 μg/ml insulin) and the cells were incubated in insulin medium for 2 days and then the insulin medium was replaced with growth medium and the cells were then cultured for total of 10 days (from day 0). For ULMA treatment, the cells were treated on day 0 (the day on which differentiation medium was added), and the treatment was continued for a total of 10 days. In all cases, medium was replaced with fresh medium containing vehicle (0.1% DMSO) or 10 nM ULMA every day. After 10 days from day 0, cells were washed in cold PBS and RNA was extracted using trizol reagent using standard procedure following which cDNA synthesis was done and transcript expression was determined using QRT-PCR as described above.
For western blot-based determination of UCP-1, UCP-2 and PGC-1α protein level, cells from an identical set of experiment were lysed and western blotted with UCP-1, UCP-2 (Abcam), PGC-1α(Calbiochem), or beta-actin (cell signaling technology; used as a loading control) as described above.

[1] = 10 nM, 10 days of differentiation
[2] = differentiated in presence of ULMA, 10 days

`O=C1c2c(cc(O)c([C@@H]3O[C@H](CO)[C@@H](O)[C@H](O)[C@H]3O)c2O)O[C@@H](c2ccc(O)c(O)c2)[C@@H]1O` [ULMA, (2S,3S)-(+)-3′,4′,5,7-tetrahydroxydihydroflavonol-6-C-β-D-glucopyranoside] was tested, and the “PGC-1α mRNA level” value [1] was “significant increase”, the “PRDM16 mRNA level” value [1] was “significant increase” and the “UCP-1 mRNA level” value [1] was “significant increase”. For the same compound, the “UCP-2 mRNA level” value [1] was “significant increase”, the PGC-1α protein level [2] was “elevated” and the UCPs protein level [2] was “elevated”.
